Laboratory results reported in ChEMBL document CHEMBL1201862, “PubChem BioAssay data set” (2004).
Active and inactive are the calls of the source.

Columns and labels:
[1] = biological target: Low molecular weight phosphotyrosine protein phosphatase (Homo sapiens, UniProt P24666); type: functional; conditions: read-out: IC50_Mean;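 further: Dose-response confirmation assay measuring inhibition of LMPTP enzyme activity by fluorescence intensity read-out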
Beta Lactamase = Beta Lactamase (Pseudomonas aeruginosa, UniProt Q932Y6); assay: beta-lactamase reporter inhibitor potency, dose response, artefact control for NOD2-RIPK2 interaction inhibitor project, BLA reporter cells, FRET fluorescence (AID 651552); type: functional, cell-based
[2] = Fluorescence-based cell-based high throughput dose response assay for inhibitors of the interaction of nucleotide-binding oligomerization domain containing 2 (NOD2) and the receptor-interacting serine-threonine kinase 2 (RIPK2).; type: functional; conditions: Homo sapiens
[3] = biological target: Hepatocyte nuclear factor 4-alpha (Homo sapiens, UniProt P41235); type: functional, cell-based;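 further: biochemical luminescence-based dose-response counterscreen measuring inhibition of HNF4 dimerization, run alongside a screen for blockers of ABHD5–perilipin-5 interaction; split luciferase complementation of HNF4 fusion proteins in cell lysate measuring dimerization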
[4] = biological target: T1, ATP-dependent translocase ABCB1 (Homo sapiens, UniProt P08183); assay: ABCB1 efflux inhibitor potency, dose response, Jurkat-DNR cells, JC-1, flow cytometry, set 2 (AID 504569); type: functional; conditions: read-out: EC50_MICROM_;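 further: potency of pump inhibitors that raise cellular JC-1 green fluorescence up to the nicardipine level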
[5] = biological target: T1, ATP-dependent translocase ABCB1; assay: ABCG2 efflux pump inhibitor potency, dose response, Ig-MXP3 cells, JC-1, flow cytometry, set 2 (AID 504566); type: functional; conditions: read-out: EC50_MICROM_;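 further: flow cytometry median green fluorescence of retained JC-1 dye; potency of efflux pump inhibition measured as rising substrate retention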
[6] = NIH/3T3 fibroblast cytotoxicity, dose response, cytotoxicity control for T. cruzi growth inhibitor project, cell-based, cherry-pick samples, set 2 (AID 651817); type: functional; conditions: NIH3T3
[7] = biological target: T2, Alkaline phosphatase, tissue-nonspecific isozyme (Homo sapiens, UniProt P05186)
T2 sequence (P05186 whole entry): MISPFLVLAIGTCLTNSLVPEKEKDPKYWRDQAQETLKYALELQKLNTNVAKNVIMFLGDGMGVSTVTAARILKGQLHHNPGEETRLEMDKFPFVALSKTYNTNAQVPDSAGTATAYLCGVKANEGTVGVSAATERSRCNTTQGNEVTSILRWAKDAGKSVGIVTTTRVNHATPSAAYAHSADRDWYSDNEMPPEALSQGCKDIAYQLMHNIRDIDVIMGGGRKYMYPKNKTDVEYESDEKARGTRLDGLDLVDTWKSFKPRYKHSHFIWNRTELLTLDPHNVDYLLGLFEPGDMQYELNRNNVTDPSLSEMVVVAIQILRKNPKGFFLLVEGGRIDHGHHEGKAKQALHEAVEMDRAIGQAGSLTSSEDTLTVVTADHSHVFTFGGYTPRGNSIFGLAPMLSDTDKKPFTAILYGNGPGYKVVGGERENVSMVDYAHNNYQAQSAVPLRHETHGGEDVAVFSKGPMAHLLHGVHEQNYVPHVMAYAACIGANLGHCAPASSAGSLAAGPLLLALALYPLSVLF

Beta-lactamase [8] = biological target: Beta-lactamase (Salmonella choleraesuis (strain SC-B67), UniProt Q5J463)
Beta-lactamase [9] = biological target: Beta-lactamase (Pseudomonas aeruginosa, UniProt Q79MP6);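 further: biochemical dose-response test of metallo-beta-lactamase enzyme inhibition, read out by epi-absorbance; purified recombinant IMP-1 metallo-beta-lactamase with nitrocefin as substrate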
[10] = biological target: T1, ATP-dependent translocase ABCB1; assay: ABCB1 efflux pump inhibitor potency, dose response, Jurkat-DNR cells, JC-1, flow cytometry (AID 1689); type: functional
Interleukin-8 [11] = biological target: T3, Interleukin-8 (Homo sapiens, UniProt P10145); assay: Dose Response confirmation of uHTS small molecule hits for cystic fibrosis induced NFkb Inhibitors in a TNFa-induced IL8 counterscreen.; type: functional; conditions: read-out: IC50_Mean
Interleukin-8 [12] = biological target: T3, Interleukin-8; assay: Dose Response confirmation of uHTS small molecule hits for cystic fibrosis induced NFkb Inhibitors in a PAF-induced IL8 counterscreen.; type: functional; conditions: read-out: IC50_Mean

T1 sequence (P08183 whole entry): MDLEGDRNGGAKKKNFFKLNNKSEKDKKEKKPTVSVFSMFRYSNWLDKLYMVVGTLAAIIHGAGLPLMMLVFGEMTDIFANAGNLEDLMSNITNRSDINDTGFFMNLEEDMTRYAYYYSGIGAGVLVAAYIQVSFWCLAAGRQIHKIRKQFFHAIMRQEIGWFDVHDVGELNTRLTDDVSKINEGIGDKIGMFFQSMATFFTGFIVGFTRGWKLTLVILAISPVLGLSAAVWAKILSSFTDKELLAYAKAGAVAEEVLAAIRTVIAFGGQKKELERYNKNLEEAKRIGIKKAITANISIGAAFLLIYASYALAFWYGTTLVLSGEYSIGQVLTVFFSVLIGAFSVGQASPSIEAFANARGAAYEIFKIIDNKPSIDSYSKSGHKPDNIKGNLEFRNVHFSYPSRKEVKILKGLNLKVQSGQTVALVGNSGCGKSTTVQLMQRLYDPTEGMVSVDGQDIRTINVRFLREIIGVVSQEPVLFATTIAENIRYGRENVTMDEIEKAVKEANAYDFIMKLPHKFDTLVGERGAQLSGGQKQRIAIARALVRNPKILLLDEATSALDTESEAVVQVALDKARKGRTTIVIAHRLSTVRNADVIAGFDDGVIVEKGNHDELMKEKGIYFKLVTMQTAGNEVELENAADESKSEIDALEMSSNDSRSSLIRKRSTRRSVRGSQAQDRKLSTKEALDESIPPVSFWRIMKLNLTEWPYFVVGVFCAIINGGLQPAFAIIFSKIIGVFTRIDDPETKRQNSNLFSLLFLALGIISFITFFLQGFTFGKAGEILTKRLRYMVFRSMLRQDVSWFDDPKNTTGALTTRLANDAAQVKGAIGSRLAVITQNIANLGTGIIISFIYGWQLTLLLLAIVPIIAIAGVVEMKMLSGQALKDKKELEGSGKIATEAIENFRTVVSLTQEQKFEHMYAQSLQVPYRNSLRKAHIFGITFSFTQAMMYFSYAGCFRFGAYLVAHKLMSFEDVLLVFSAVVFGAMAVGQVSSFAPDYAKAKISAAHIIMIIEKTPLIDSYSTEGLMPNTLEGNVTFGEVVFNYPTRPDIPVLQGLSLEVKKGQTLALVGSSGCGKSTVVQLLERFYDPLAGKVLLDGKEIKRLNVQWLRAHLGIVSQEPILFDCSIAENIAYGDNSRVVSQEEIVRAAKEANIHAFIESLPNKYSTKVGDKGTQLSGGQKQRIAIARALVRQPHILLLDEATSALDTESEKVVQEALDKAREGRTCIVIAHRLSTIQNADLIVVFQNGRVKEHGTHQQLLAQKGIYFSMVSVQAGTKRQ
T3 sequence (P10145 whole entry): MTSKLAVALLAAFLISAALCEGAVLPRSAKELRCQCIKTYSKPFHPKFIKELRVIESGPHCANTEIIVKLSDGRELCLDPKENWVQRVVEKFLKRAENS
Chain of Beta Lactamase (Q932Y6 whole entry, the tested form may be a part): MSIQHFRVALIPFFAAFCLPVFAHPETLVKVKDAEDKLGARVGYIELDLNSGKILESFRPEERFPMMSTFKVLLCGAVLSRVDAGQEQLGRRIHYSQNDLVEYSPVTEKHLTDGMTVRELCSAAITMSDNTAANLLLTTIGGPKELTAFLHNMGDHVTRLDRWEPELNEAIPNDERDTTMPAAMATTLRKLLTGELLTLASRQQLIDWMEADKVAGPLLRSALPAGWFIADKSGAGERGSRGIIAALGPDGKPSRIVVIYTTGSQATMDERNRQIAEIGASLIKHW
Chain of Low molecular weight phosphotyrosine protein phosphatase (P24666 whole entry): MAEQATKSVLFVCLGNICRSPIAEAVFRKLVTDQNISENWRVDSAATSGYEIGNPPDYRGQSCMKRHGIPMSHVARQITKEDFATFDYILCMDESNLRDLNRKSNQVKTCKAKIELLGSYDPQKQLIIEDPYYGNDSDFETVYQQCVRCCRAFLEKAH
Chain of Beta-lactamase (Pseudomonas aeruginosa, UniProt Q79MP6) (Q79MP6 whole entry): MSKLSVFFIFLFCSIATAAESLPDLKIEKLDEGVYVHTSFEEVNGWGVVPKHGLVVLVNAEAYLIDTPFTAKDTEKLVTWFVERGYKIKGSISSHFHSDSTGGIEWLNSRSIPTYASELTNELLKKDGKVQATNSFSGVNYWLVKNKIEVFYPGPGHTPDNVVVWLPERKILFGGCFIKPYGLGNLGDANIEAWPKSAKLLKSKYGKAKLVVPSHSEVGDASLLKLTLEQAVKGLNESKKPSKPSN
Chain of Hepatocyte nuclear factor 4-alpha (P41235 whole entry, the tested form may be a part): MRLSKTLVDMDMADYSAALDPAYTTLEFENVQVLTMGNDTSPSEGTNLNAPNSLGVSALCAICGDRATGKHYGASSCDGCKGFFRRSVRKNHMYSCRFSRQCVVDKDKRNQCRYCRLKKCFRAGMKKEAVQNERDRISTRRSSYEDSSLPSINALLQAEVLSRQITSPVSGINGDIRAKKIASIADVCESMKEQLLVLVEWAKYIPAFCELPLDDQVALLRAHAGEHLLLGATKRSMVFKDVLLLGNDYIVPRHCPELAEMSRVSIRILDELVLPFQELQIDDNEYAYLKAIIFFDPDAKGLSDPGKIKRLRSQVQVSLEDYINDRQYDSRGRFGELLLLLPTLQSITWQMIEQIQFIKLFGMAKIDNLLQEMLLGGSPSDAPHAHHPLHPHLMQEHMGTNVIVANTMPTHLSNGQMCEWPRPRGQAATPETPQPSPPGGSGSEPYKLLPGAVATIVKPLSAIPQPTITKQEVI
Chain of Beta-lactamase (Salmonella choleraesuis (strain SC-B67), UniProt Q5J463) (Q5J463 whole entry): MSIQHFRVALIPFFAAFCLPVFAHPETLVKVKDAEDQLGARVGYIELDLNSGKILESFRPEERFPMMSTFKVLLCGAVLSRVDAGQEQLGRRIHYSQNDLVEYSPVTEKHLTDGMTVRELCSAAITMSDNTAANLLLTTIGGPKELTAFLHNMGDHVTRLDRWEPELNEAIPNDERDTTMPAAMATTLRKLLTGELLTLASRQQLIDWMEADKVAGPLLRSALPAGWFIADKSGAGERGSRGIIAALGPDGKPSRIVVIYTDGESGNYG

Q: With COC(=O)c1ccc(C(=O)OC)c(NC(=O)Cc2cccs2)c1 as the compound, how does the IC50 [1] read?
A: The IC50 was 27.9 µM (inactive).

Q: Which IC50 (Beta Lactamase) does the source give for Cc1c(C(=O)Nc2ccccc2)c2ccc(C(F)(F)F)cc2n1O here?
A: Its IC50 is 19.4 µM (inactive).

Q: And the IC50 [2]?
A: The IC50 was 14.5 µM (inactive).

Q: For O=C(NC1CCCCC1)C(c1ccc(-c2ccccc2)cc1)n1c(=O)c(-c2ccco2)nc2ccccc21 (stereo not drawn), which IC50 [3] is on record?
A: The IC50 was 2.74 µM (active).

Q: Which EC50 [4] does the source give for O=C(c1ccoc1)N1CCN(c2cc(-c3ccc(F)cc3)nc3cc(-c4cccc(Cl)c4)nn23)CC1 here?
A: The EC50 was 5.57 µM (active).

Q: And the EC50 [5]?
A: The EC50 was 2.75 µM (active).

Q: For C[C@@H]1CN([C@H](C)CO)C(=O)c2cccc(NC(=O)c3nc4ccccc4s3)c2O[C@H]1CN(C)S(=O)(=O)c1ccccc1, which AC50 [6] is on record?
A: Its AC50 is 39 µM (inactive).

Q: Which EC50 [7] does the source give for CCN1/C(=C/C=C/c2oc3ccc4ccccc4c3[n+]2CC)Oc2ccc3ccccc3c21 here?
A: The EC50 was > 100 µM (not active).

Q: What about the IC50 (Beta-lactamase [8]) of the same compound?
A: The IC50 was > 59.6 µM (inactive).

Q: What about the IC50 (Beta-lactamase [9]) of the same compound?
A: The IC50 was > 59.6 µM (inactive).

Q: What about the EC50 [10] of the same compound?
A: The EC50 was 0.713 µM (active).

Q: With COc1cccc(-c2ccc3ncnc(NCc4cc(C)cs4)c3c2)c1 as the compound, how does the IC50 (Interleukin-8 [11]) read?
A: The IC50 was 5.37 µM (active).

Q: What about the IC50 (Interleukin-8 [12]) of the same compound?
A: The IC50 was 12.4 µM (inactive).
